Measured values from ChEMBL document CHEMBL3046025, “Fungitoxic Properties of N-Phenylformamidoximes in Control of Benzimidazole-Resistant Isolates of Fungi” (1992).

Experiments:
Format in all cases: functional
Cercospora beticola [1] = assay: Antifungal activity against Benzimidalzole-resistant Cercospora beticola isolate Cb-19 infected in sugar beet seedlings at 12.5 ppm treated as foliar application 7 days prior to inoculation
Cercospora beticola [2] = assay: Antifungal activity against Benzimidalzole-resistant Cercospora beticola isolate Cb-19 infected in sugar beet seedlings at 50 ppm treated as foliar application 7 days prior to inoculation
Cercospora beticola [3] = assay: Antifungal activity against Benzimidalzole-resistant Cercospora beticola isolate Cb-19 infected in sugar beet seedlings at 200 ppm treated as foliar application 7 days prior to inoculation
Cercospora beticola [4] = assay: Antifungal activity against Benzimidalzole-resistant Cercospora beticola isolate Cb-19 infected in sugar beet seedlings at 200 ppm 24 hr-post inoculation
Cercospora beticola [5] = assay: Antifungal activity against Benzimidalzole-resistant Cercospora beticola isolate Cb-19 infected in sugar beet seedlings at 200 ppm applied as soil drench 3 days prior to inoculation
Cercospora beticola [6] = assay: Antifungal activity against Benzimidalzole-sensitive Cercospora beticola isolate 18-1 infected in compound-treated sugar beet seedlings at 200 ppm after 12 days
Cercospora beticola [7] = assay: Antifungal activity against Benzimidalzole-sensitive Cercospora beticola isolate 18-1 infected in compound-treated sugar beet seedlings at 50 ppm after 12 days
Cercospora beticola [8] = assay: Antifungal activity against Benzimidalzole-sensitive Cercospora beticola isolate 18-1 infected in compound-treated sugar beet seedlings at 12.5 ppm after 12 days
Cercospora beticola [9] = assay: Antifungal activity against Benzimidalzole-resistant Cercospora beticola isolate 18-2 infected in compound-treated sugar beet seedlings at 3.1 ppm after 12 days
Cercospora beticola [10] = assay: Antifungal activity against Benzimidalzole-resistant Cercospora beticola isolate 18-2 infected in compound-treated sugar beet seedlings at 12.5 ppm after 12 days
Cercospora beticola [11] = assay: Antifungal activity against Benzimidalzole-resistant Cercospora beticola isolate 18-2 infected in compound-treated sugar beet seedlings at 50 ppm after 12 days
Cercospora beticola [12] = assay: Antifungal activity against Benzimidalzole-resistant Cercospora beticola isolate 18-2 infected in compound-treated sugar beet seedlings at 200 ppm after 12 days
Cercospora beticola [13] = assay: Antifungal activity against Benzimidalzole-resistant Cercospora beticola isolate Cb-19 infected in compound-treated sugar beet seedlings at 3.1 ppm after 12 days
Cercospora beticola [14] = assay: Antifungal activity against Benzimidalzole-resistant Cercospora beticola isolate Cb-19 infected in compound-treated sugar beet seedlings at 50 ppm after 12 days
Cercospora beticola [15] = assay: Antifungal activity against Benzimidalzole-resistant Cercospora beticola isolate Cb-19 infected in compound-treated sugar beet seedlings at 12.5 ppm after 12 days
Cercospora beticola [16] = assay: Antifungal activity against Benzimidalzole-resistant Cercospora beticola isolate Cb-19 infected in compound-treated sugar beet seedlings at 200 ppm after 12 days
Cercospora beticola [17] = assay: Antifungal activity against Benzimidalzole-resistant Cercospora beticola isolate 20-2 infected in compound-treated sugar beet seedlings at 3.1 ppm after 12 days
Cercospora beticola [18] = assay: Antifungal activity against Benzimidalzole-resistant Cercospora beticola isolate 20-2 infected in compound-treated sugar beet seedlings at 12.5 ppm after 12 days
Cercospora beticola [19] = assay: Antifungal activity against Benzimidalzole-resistant Cercospora beticola isolate 20-2 infected in compound-treated sugar beet seedlings at 50 ppm after 12 days
Cercospora beticola [20] = assay: Antifungal activity against Benzimidalzole-resistant Cercospora beticola isolate 20-2 infected in compound-treated sugar beet seedlings at 200 ppm after 12 days
Cercospora beticola [21] = assay: Antifungal activity against Benzimidalzole-sensitive Cercospora beticola isolate 18-1 infected in compound-treated sugar beet seedlings at 3.1 ppm after 12 days
Botrytis cinerea [22] = assay: Antifungal activity against Benzimidalzole-resistant Botryotinia fuckeliana isolate Bc-44 infected kidney bean leaves at 12.5 ppm treated as foliar application followed by incubation for 7 days in green house condition
Botrytis cinerea [23] = assay: Antifungal activity against Benzimidalzole-resistant Botryotinia fuckeliana isolate Bc-44 infected kidney bean leaves at 50 ppm treated as foliar application followed by incubation for 7 days in green house condition
Botrytis cinerea [24] = assay: Antifungal activity against Benzimidalzole-resistant Botryotinia fuckeliana isolate Bc-44 infected kidney bean leaves at 200 ppm treated as foliar application followed by incubation for 7 days in green house condition
Botrytis cinerea [25] = assay: Antifungal activity against Benzimidalzole-resistant Botryotinia fuckeliana isolate Bc-44 infected kidney bean leaves at 50 ppm applied as soil drench 3 days prior to inoculation
Botrytis cinerea [26] = assay: Antifungal activity against Benzimidalzole-resistant Botryotinia fuckeliana isolate Bc-44 infected kidney bean leaves at 200 ppm applied as soil drench 3 days prior to inoculation
Botrytis cinerea [27] = assay: Antifungal activity against Benzimidalzole-sensitive Botryotinia fuckeliana isolate Bc-9 infected compound-treated kidney bean leaves at 12.5 ppm after 4 days
Botrytis cinerea [28] = assay: Antifungal activity against Benzimidalzole-sensitive Botryotinia fuckeliana isolate Bc-9 infected compound-treated kidney bean leaves at 50 ppm after 4 days
Botrytis cinerea [29] = assay: Antifungal activity against Benzimidalzole-sensitive Botryotinia fuckeliana isolate Bc-9 infected compound-treated kidney bean leaves at 200 ppm after 4 days
Botrytis cinerea [30] = assay: Antifungal activity against Benzimidalzole-resistant Botryotinia fuckeliana isolate Bc-44 infected compound-treated kidney bean leaves at 12.5 ppm after 4 days
Botrytis cinerea [31] = assay: Antifungal activity against Benzimidalzole-resistant Botryotinia fuckeliana isolate Bc-44 infected compound-treated kidney bean leaves at 50 ppm after 4 days
Botrytis cinerea [32] = assay: Antifungal activity against Benzimidalzole-resistant Botryotinia fuckeliana isolate Bc-44 infected compound-treated kidney bean leaves at 200 ppm after 4 days
Botrytis cinerea [33] = assay: Antifungal activity against Benzimidalzole-resistant Botryotinia fuckeliana isolate Bc-20 infected compound-treated kidney bean leaves at 3.1 ppm after 4 days
Botrytis cinerea [34] = assay: Antifungal activity against Benzimidalzole-resistant Botryotinia fuckeliana isolate Bc-20 infected compound-treated kidney bean leaves at 12.5 ppm after 4 days
Botrytis cinerea [35] = assay: Antifungal activity against Benzimidalzole-resistant Botryotinia fuckeliana isolate Bc-20 infected compound-treated kidney bean leaves at 200 ppm after 4 days
Botrytis cinerea [36] = assay: Antifungal activity against Benzimidalzole-resistant Botryotinia fuckeliana isolate Bc-20 infected compound-treated kidney bean leaves at 50 ppm after 4 days
Botrytis cinerea [37] = assay: Antifungal activity against Benzimidalzole-sensitive Botryotinia fuckeliana isolate Bc-9 infected compound-treated kidney bean leaves at 3.1 ppm after 4 days
Botrytis cinerea [38] = assay: Antifungal activity against Benzimidalzole-resistant Botryotinia fuckeliana isolate Bc-44 infected kidney bean leaves at 3.1 ppm 24 hr post-infection measured after 3 days
Botrytis cinerea [39] = assay: Antifungal activity against Benzimidalzole-resistant Botryotinia fuckeliana isolate Bc-44 infected kidney bean leaves at 12.5 ppm 24 hr post-infection measured after 3 days
Botrytis cinerea [40] = assay: Antifungal activity against Benzimidalzole-resistant Botryotinia fuckeliana isolate Bc-44 infected kidney bean leaves at 50 ppm 24 hr post-infection measured after 3 days
Botrytis cinerea [41] = assay: Antifungal activity against Benzimidalzole-resistant Botryotinia fuckeliana isolate Bc-44 infected kidney bean leaves at 200 ppm 24 hr post-infection measured after 3 days
Botrytis cinerea [42] = assay: Antifungal activity against Benzimidalzole-resistant Botryotinia fuckeliana isolate Bc-44 infected compound-treated kidney bean leaves at 3.1 ppm after 4 days
Botrytis cinerea [43] = assay: Antifungal activity against Benzimidalzole-sensitive Botryotinia fuckeliana isolate Bc-9 infected kidney bean leaves at 12.5 ppm 24 hr post-infection measured after 3 days
Cercospora beticola [44] = assay: Antifungal activity against Benzimidalzole-sensitive Cercospora beticola isolate 18-1 infected in sugar beet seedlings at 3.1 ppm 24 hr-post inoculation
Cercospora beticola [45] = assay: Antifungal activity against Benzimidalzole-sensitive Cercospora beticola isolate 18-1 infected in sugar beet seedlings at 12.5 ppm 24 hr-post inoculation
Cercospora beticola [46] = assay: Antifungal activity against Benzimidalzole-sensitive Cercospora beticola isolate 18-1 infected in sugar beet seedlings at 50 ppm 24 hr-post inoculation
Cercospora beticola [47] = assay: Antifungal activity against Benzimidalzole-sensitive Cercospora beticola isolate 18-1 infected in sugar beet seedlings at 200 ppm 24 hr-post inoculation
Botrytis cinerea [48] = assay: Antifungal activity against Benzimidalzole-sensitive Botryotinia fuckeliana isolate Bc-9 infected kidney bean leaves at 200 ppm applied as soil drench 3 days prior to inoculation
Botrytis cinerea [49] = assay: Antifungal activity against Benzimidalzole-sensitive Botryotinia fuckeliana isolate Bc-9 infected kidney bean leaves at 200 ppm treated as foliar application followed by incubation for 7 days in green house condition
Cercospora beticola [50] = assay: Antifungal activity against Benzimidalzole-sensitive Cercospora beticola isolate 18-1 infected in sugar beet seedlings at 200 ppm applied as soil drench 3 days prior to inoculation
Cercospora beticola [51] = assay: Antifungal activity against Benzimidalzole-sensitive Cercospora beticola isolate 18-1 infected in sugar beet seedlings at 12.5 ppm treated as foliar application 7 days prior to inoculation
Cercospora beticola [52] = assay: Antifungal activity against Benzimidalzole-sensitive Cercospora beticola isolate 18-1 infected in sugar beet seedlings at 50 ppm treated as foliar application 7 days prior to inoculation
Cercospora beticola [53] = assay: Antifungal activity against Benzimidalzole-sensitive Cercospora beticola isolate 18-1 infected in sugar beet seedlings at 200 ppm treated as foliar application 7 days prior to inoculation
Botrytis cinerea [54] = assay: Antifungal activity against Benzimidalzole-sensitive Botryotinia fuckeliana isolate Bc-9 infected kidney bean leaves at 50 ppm 24 hr post-infection measured after 3 days
Botrytis cinerea [55] = assay: Antifungal activity against Benzimidalzole-sensitive Botryotinia fuckeliana isolate Bc-9 infected kidney bean leaves at 200 ppm 24 hr post-infection measured after 3 days

Row | Molecule | Activity (Cercospora beticola [6]) [%] | Activity (Cercospora beticola [7]) [%] | Activity (Cercospora beticola [8]) [%] | Activity (Cercospora beticola [11]) [%] | Activity (Cercospora beticola [12]) [%] | Activity (Cercospora beticola [14]) [%] | Activity (Cercospora beticola [16]) [%] | Activity (Cercospora beticola [17]) [%] | Activity (Cercospora beticola [18]) [%] | Activity (Cercospora beticola [19]) [%] | Activity (Cercospora beticola [20]) [%] | Activity (Cercospora beticola [21]) [%] | Activity (Botrytis cinerea [27]) [%] | Activity (Botrytis cinerea [28]) [%] | Activity (Botrytis cinerea [29]) [%] | Activity (Botrytis cinerea [30]) [%] | Activity (Botrytis cinerea [31]) [%] | Activity (Botrytis cinerea [32]) [%] | Activity (Botrytis cinerea [34]) [%] | Activity (Botrytis cinerea [35]) [%] | also measured
1 | TRIPHENYLSTANNANOL | 100 | 100 | 88 | 100 | 100 | 100 | 100 | 69 | 94 | 100 | 100 | 75 | – | – | – | – | – | – | – | – | Activity (Cercospora beticola [1]): 65%; Activity (Cercospora beticola [2]): 90%; Activity (Cercospora beticola [3]): 100%; Activity (Cercospora beticola [4]): 0%; Activity (Cercospora beticola [5]): 0%; Activity (Cercospora beticola [9]): 56%; Activity (Cercospora beticola [10]): 80%; Activity (Cercospora beticola [13]): 60%; Activity (Cercospora beticola [15]): 78%
2 | C=CC1(C)OC(=O)N(c2cc(Cl)cc(Cl)c2)C1=O (stereo unspecified) [VINCLOZOLIN] | – | – | – | – | – | – | – | – | – | – | – | – | 90 | 100 | 100 | 77 | 100 | 100 | 82 | 100 | Activity (Botrytis cinerea [22]): 45%; Activity (Botrytis cinerea [23]): 75%; Activity (Botrytis cinerea [24]): 91%; Activity (Botrytis cinerea [25]): 56%; Activity (Botrytis cinerea [26]): 93%; Activity (Botrytis cinerea [33]): 31%; Activity (Botrytis cinerea [36]): 100%; Activity (Botrytis cinerea [37]): 39%; Activity (Botrytis cinerea [38]): 70%; Activity (Botrytis cinerea [39]): 97%; Activity (Botrytis cinerea [40]): 100%; Activity (Botrytis cinerea [41]): 100%; Activity (Botrytis cinerea [42]): 21%
3 | COC(=O)NC(=S)Nc1ccccc1NC(=S)NC(=O)OC [THIOPHANATE METHYL] | 100 | 100 | 88 | 0 | 0 | 0 | 0 | 0 | 12 | 56 | 78 | 68 | 35 | 84 | 96 | 0 | 0 | 5 | 0 | 17 | Activity (Botrytis cinerea [43]): 73%; Activity (Cercospora beticola [44]): 13%; Activity (Cercospora beticola [45]): 75%; Activity (Cercospora beticola [46]): 100%; Activity (Cercospora beticola [47]): 100%; Activity (Botrytis cinerea [48]): 51%; Activity (Botrytis cinerea [49]): 93%; Activity (Botrytis cinerea [36]): 7%; Activity (Cercospora beticola [50]): 64%; Activity (Cercospora beticola [51]): 25%; Activity (Cercospora beticola [52]): 84%; Activity (Cercospora beticola [53]): 88%; Activity (Botrytis cinerea [54]): 84%; Activity (Botrytis cinerea [55]): 84%
